In patent EP0907648B1, “QUINOLONE CARBOXYLIC ACIDS SUBSTITUTED BY 7-(3-VINYL-1,4-PIPERAZINE-1-YL)” (BAYER AG, priority 1996, dated 1998):
In brackets after ≈: the same amount, converted by molar mass. Structures can show the parent of a compound that is named as a salt. Where two headings read alike, the source gives them in different places.

Key:
[1] = system: E.-coli-Stammes 6200 Serovar 078; assay: In vivo antibacterial efficacy in E. coli infected chicks (mortality); set-up: species or system Hühner-Küken; settings: Escherichia coli; chicks infected intrathoracally, oral dose immediately after infection, mortality 48 h after infection
Source text: Die antibakterielle Wirksamkeit der erfindungsgemäßen Verbindung in-vivo wurde folgendermaßen bestimmt. Zwei bis […] (Lohmann-Hybriden, Fa. Lohmann, Cuxhaven) wurden mit 5 x 10^6 KBE/ml des E.-coli-Stammes 6200 Serovar 078 (Prof. Hinz, Hannover) intrathorakal infiziert. Unmittelbar nach der Infektion erhielten jeweils Gruppen von 10 bis 20 Küken den Wirkstoff oral appliziert. Ausgetestet wurden 6 Verdünnungen einer geometrischen Verdünnungsreihe. Die Auswertung erfolgte durch […] 48 Stunden nach der Infektion. Die Wirksamkeit der betreffenden Verbindung wird als ED90 in mg/kg angegeben.

[2] = system: E. coli; assay: MIC (MHK), agar serial dilution on Iso-Sensitest agar; type: cell-based; settings: for MIC: Escherichia coli, 20 h, read-out: MHK-Werte
Source text: (§1) Die minimalen Hemmkonzentrationen (MHK) der erfindungsgemäßen Verbindungen wurden per Reihenverdünnungsverfahren auf Iso-Sensitest Agar (Oxoid) bestimmt. Für jede Prüfsubstanz wurde eine Reihe von Agarplatten hergestellt, die bei jeweils doppelter Verdünnung abfallende Konzentrationen des Wirkstoffs enthielten. Die Agarplatten wurden mit einem Multipoint-Inokulator (Denley) beimpft. Zum Beimpfen wurden Übernachtkulturen der Erreger verwandt, die zuvor so verdünnt wurden, daß jeder Impfpunkt ca. 10^4 koloniebildende Partikel enthielt. Die beimpften Agarplatten wurden bei 37°C bebrütet, und das Keimwachstum wurde nach ca. 20 Stunden abgelesen. Der MHK-Wert (µg/ml) gibt die niedrigste Wirkstoffkonzentration an, bei der mit bloßem Auge kein Wachstum zu erkennen war. Die Erfassung der MHK-Werte für Mycoplasmen erfolgte mikroskopisch nach einer Inkubationszeit von 5 bis 7 Tagen.

[3] = system: Staph. spp.; assay: as above; type: cell-based; settings: for MIC: 20 h, read-out: MHK-Werte
[4] = system: Bordetella; assay: as above; type: cell-based; settings: Bordetella 9213 GE; for MIC: 20 h, read-out: MHK-Werte
[5] = system: Salmonella spp.; assay: as above; type: cell-based; settings: for MIC: 20 h, Salmonella spp. S 9656, read-out: MHK-Werte; for MHK-Werte: Salmonella spp. S 9657
Source text: as §1

[6] = system: B. bronchiseptica; assay: as above; type: cell-based; settings: for MIC: Bordetella bronchiseptica, 20 h, B. bronchiseptica B 9601, read-out: MHK-Werte
[7] = system: M. agalactiae PG 2; assay: MIC (MHK) against mycoplasmas, microscopic reading; type: cell-based; settings: Mycoplasmopsis agalactiae, PG2, incubation 5 to 7 days, read-out: MHK-Werte gegen Mycoplasmen
[8] = system: M. bovirhinis PG 43; assay: MIC (MHK) against mycoplasmas, microscopic reading; type: cell-based; settings: incubation 5 to 7 days, read-out: MHK-Werte gegen Mycoplasmen
[9] = system: M. gallisepticum PG 31; assay: MIC (MHK) against mycoplasmas, microscopic reading; type: cell-based; settings: Mycoplasmoides gallisepticum, PG31, incubation 5 to 7 days, read-out: MHK-Werte gegen Mycoplasmen
[10] = system: M. iowae 695; assay: MIC (MHK) against mycoplasmas, microscopic reading; type: cell-based; settings: incubation 5 to 7 days, read-out: MHK-Werte gegen Mycoplasmen
[11] = system: Pseudomonas spp.; assay: MIC (MHK), agar serial dilution on Iso-Sensitest agar; type: cell-based; settings: 20 h; Pseudomonas spp. P 9510; read-out: MHK-Werte
[12] = system: S. agalactiae; assay: as above; type: cell-based
[13] = system: S. suis; assay: as above; type: cell-based; settings: Streptococcus suis, 20 h, read-out: MHK-Werte
[14] = system: M. bovis "Donetta"; assay: microbe, parasite or virus in culture; type: cell-based; settings: read-out: MHK-Werte gegen Mycoplasmen

| Compound | ED90 [1] [mg/kg] | MIC ([2]; E. coli 21 Bui) [µg/mL] | MIC ([2]; E. coli 3614 GE) [µg/mL] | MIC ([2]; E. coli 9430 LH) [µg/mL] | MIC ([2]; E. coli G 293 LH) [µg/mL] | MIC ([3]; Staph. spp. 2706) [µg/mL] | MIC ([3]; Staph. spp. 3781 GE) [µg/mL] | MIC ([3]; Staph. spp. B 5520 TGD) [µg/mL] | MIC ([3]; Staph. spp. G 600 LH) [µg/mL] | MIC [4] [µg/mL] | MIC ([2]; E. coli Ec 9675) [µg/mL] | MIC [5] [µg/mL] | MHK-Werte [5] | MHK-Werte ([6]; B. bronchiseptica B 9610) | MHK-Werte ([6]; B. bronchiseptica B 9613) | MHK-Werte ([6]; B. bronchiseptica B 9618) | MIC [6] [µg/mL] | MIC [7] [µg/mL] | MIC [8] [µg/mL] | MIC [9] [µg/mL] | other results |
| --- | --- | --- | --- | --- | --- | --- | --- | --- | --- | --- | --- | --- | --- | --- | --- | --- | --- | --- | --- | --- | --- |
| C=CC1CN(c2cc3c(cc2F)c(=O)c(C(=O)O)cn3C2CC2)CCN1 (centres unmarked) [Bsp. 102 aus EP-A 230 053, 1-Cyclopropyl-6-fluor-1,4-dihydro-4-oxo-7-(3-vinyl-1,4-piperazin-1-yl)-3-chinoloncarbonsäure, reference compound] | 5 to 10 | – | – | – | – | – | – | – | – | – | – | – | – | – | – | – | – | – | – | – | – |
| C=CC1CN(c2c(F)cc3c(=O)c(C(=O)O)cn(C4CC4)c3c2Cl)CCN1/C=C/C(=O)OCC (centres unmarked) [Bsp. 3, 8-Chlor-1-cyclopropyl-7-[4-(2-ethoxycarbonyl-vinyl)-3-vinyl-1,4-piperazin-1-yl]-6-fluor-1,4-dihydro-4-oxo-3-chinolincarbonsäure] | – | 8 (≈ 16.3 µM) | 8 (≈ 16.3 µM) | 32 (≈ 65.3 µM) | 16 (≈ 32.7 µM) | 0.25 (≈ 0.51 µM) | 2 (≈ 4.08 µM) | 2 (≈ 4.08 µM) | 2 (≈ 4.08 µM) | 16 (≈ 32.7 µM) | – | – | – | – | – | – | – | – | – | – | – |
| C=CC1CN(c2c(F)c(N)c3c(=O)c(C(=O)O)cn(C4CC4)c3c2F)CCN1 (centres unmarked) [Bsp. 4, 5-Amino-1-cyclopropyl-6,8-difluor-1,4-dihydro-4-oxo-7-(3-vinyl-1,4-piperazin-1-yl)-chinolincarbonsäure] | – | 16 (≈ 41 µM) | 16 (≈ 41 µM) | 64 (≈ 164 µM) | 32 (≈ 82 µM) | – | 4 (≈ 10.2 µM) | 4 (≈ 10.2 µM) | 4 (≈ 10.2 µM) | – | 0.5 (≈ 1.28 µM) | 0.5 (≈ 1.28 µM) | 0,5 µl/ml | 0,25 µl/ml | 0,25 µl/ml | 0,25 µl/ml | 0.25 (≈ 0.64 µM) | 0.03 (≈ 0.0768 µM) | 0.25 (≈ 0.64 µM) | 0.03 (≈ 0.0768 µM) | MIC ([3]; Staph. spp. ST 9640): 0.06 µg/mL (≈ 0.154 µM); MIC [10]: 0.06 µg/mL (≈ 0.154 µM) |
| C=CC1CN(c2c(F)cc3c(=O)c(C(=O)O)cn(C4CC4)c3c2Cl)CCN1 (centres unmarked) [Bsp. 1, 8-Chlor-1-cyclopropyl-6-fluor-1,4-dihydro-4-oxo-7-(3-vinyl-1,4-piperazin-1-yl)-3-chinolincarbonsäure] | 1.25 | 8 (≈ 20.4 µM) | 4 (≈ 10.2 µM) | 16 (≈ 40.8 µM) | 8 (≈ 20.4 µM) | 0.06 (≈ 0.153 µM) | 1 (≈ 2.55 µM) | 1 (≈ 2.55 µM) | 1 (≈ 2.55 µM) | 8 (≈ 20.4 µM) | 1 (≈ 2.55 µM) | 0.5 (≈ 1.28 µM) | 0,5 µl/ml | 0,25 µl/ml | 0,25 µl/ml | 0,25 µl/ml | 0.25 (≈ 0.638 µM) | 0.06 (≈ 0.153 µM) | 0.06 (≈ 0.153 µM) | 0.03 (≈ 0.0766 µM) | MIC [11]: 0.5 µg/mL (≈ 1.28 µM); MHK-Werte ([12]; S. agalactiae Scc 9514): 0,5 µl/ml; MHK-Werte ([12]; S. agalactiae Scc 9515): 0,5 µl/ml; MHK-Werte ([12]; S. agalactiae Scc 9520): 0,5 µl/ml; MHK-Werte ([12]; S. agalactiae Scc 9524): 0,5 µl/ml; MIC ([12]; Streptococcus agalactiae, 20 h, S. agalactiae Scc 9513, read-out: MHK-Werte): 0.5 µg/mL (≈ 1.28 µM); MIC ([13]; S. suis Scc 9588): 0.06 µg/mL (≈ 0.153 µM); MIC ([13]; S. suis Scc 9591): 0.03 µg/mL (≈ 0.0766 µM); MIC ([13]; S. suis Scc 9592): 0.25 µg/mL (≈ 0.638 µM); MIC ([13]; S. suis Scc 9595): 0.03 µg/mL (≈ 0.0766 µM); MIC ([13]; S. suis Scc 9603): 0.03 µg/mL (≈ 0.0766 µM); MIC [14]: 0.06 µg/mL (≈ 0.153 µM); MIC [10]: 0.03 µg/mL (≈ 0.0766 µM) |
| C=CC1CN(c2c(F)cc3c(=O)c(C(=O)O)cn(C4CC4)c3c2Cl)CCN1 (centres unmarked) [Bsp. 2, 8-Chlor-1-cyclopropyl-6-fluor-1,4-dihydro-4-oxo-7-(3-vinyl-1,4-piperazin-1-yl)-3-chinolincarbonsäure-Hydrochlorid] | – | – | – | – | – | – | – | – | – | – | – | – | – | – | – | – | – | – | – | – | MHK-Werte ([2]; E. coli 21 Bui): 4 µl/ml; MHK-Werte ([2]; E. coli 3614 GE): 4 µl/ml; MHK-Werte ([2]; E. coli 9430 LH): 16 µl/ml; MHK-Werte ([2]; E. coli G 293 LH): 4 µl/ml; MHK-Werte ([3]; Staph. spp. 3781 GE): 1 µl/ml; MHK-Werte [4]: 8 µl/ml |
